Data published in PubChem BioAssay AID977613 (Broad Institute, 2014).
Activity calls are given as the source filed them. No rule for the calls is given here.

System: Broad 7084-01 inhibitor HTS, set 2
Test: single-concentration hits, screen 7084 set 2 (AID 977613);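 also: host cells are infected with parasite promastigotes that become internalized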

SMILES | active concentration
CC(C)NC(=O)N1CC[C@@H]2[C@H]1c1cc(Br)ccc1N(C)[C@@H]2CO | > 10 µM (inactive)
COCC(=O)N1CC2(CCN(C(=O)c3ccccn3)CC2)c2c(n(C)c3cc(OC)ccc23)[C@H]1CO | > 10 µM (inactive)
Cc1ccccc1S(=O)(=O)N1CC[C@@H]2[C@@H](CO)Nc3ccc(C#Cc4ccccc4)cc3[C@@H]21 | > 10 µM (inactive)
O=C(C[C@H]1CC[C@H]2[C@@H](COC[C@@H](O)CN2Cc2cccc(C(F)(F)F)c2)O1)NCc1ccccc1 | > 10 µM (inactive)
O=C(C[C@H]1CC[C@H]2[C@@H](COC[C@@H](O)CN2CCc2ccccc2)O1)NCc1ccc(F)cc1 | > 10 µM (inactive)
O=C(CC(F)(F)F)N1C[C@H]2[C@@H](c3ccccc31)[C@@H](CO)N2CC1CCOCC1 | > 10 µM (inactive)
CCCNC(=O)N1[C@@H]2CN(C(=O)c3cccnc3)c3ccccc3[C@@H]2[C@@H]1CO | > 10 µM (inactive)
Cc1ccc(NC(=O)Nc2ccc3c(c2)C(=O)N(C)[C@@H]2CC[C@@H](CC(=O)NCC(F)(F)F)O[C@@H]2CO3)cc1 | > 10 µM (inactive)
N#C[C@@H]1[C@H](c2ccccc2C2=CCCCC2)[C@H](CO)N1C(=O)c1cccc(F)c1 | > 10 µM (inactive)
O=C(c1ccccc1)N1[C@H](CO)[C@H](c2ccccc2)C12CN(Cc1nccs1)C2 | > 10 µM (inactive)
O=C(C1CCC1)N1CC2(C1)[C@H](c1ccccc1)[C@H](CO)N2Cc1cccnc1 | > 10 µM (inactive)
CN1C(=O)c2cc(NC(=O)Nc3ccccc3Cl)ccc2OC[C@H]2O[C@@H](CC(=O)NCCCN3CCOCC3)CC[C@H]21 | > 10 µM (inactive)
O=C(C1CCOCC1)N1C[C@H]2[C@@H](c3ccccc31)[C@@H](CO)N2C(=O)Cc1ccccc1 | > 10 µM (inactive)
CN1CCN(C(=O)C[C@H]2CC[C@@H]3[C@H](COC[C@@H](O)CN3C(=O)C3CC3)O2)CC1 | > 10 µM (inactive)
O=C(Nc1ccccc1)N1CC(=O)N2[C@H](C1)[C@H](c1ccc(C#CC3CCCCC3)cc1)[C@@H]2CO | > 10 µM (inactive)
Cc1ccc(S(=O)(=O)N2CC[C@@H]3[C@H]2c2cc(C#Cc4ccc(F)cc4)ccc2N[C@@H]3CO)cc1 | > 10 µM (inactive)
COc1ccc2c3c([nH]c2c1)[C@@H](CO)N(S(C)(=O)=O)CC31CN(CC2CCOCC2)C1 | > 10 µM (inactive)
O=C(c1cccnc1)N1CC2(C1)[C@H](c1ccccc1)[C@@H](CO)N2Cc1ccc(Cl)cc1 | > 10 µM (inactive)
COc1cccc(C(=O)Nc2ccc3c(c2)C(=O)N(C)[C@H]2CC[C@@H](CC(=O)NCCCN4CCOCC4)O[C@H]2CO3)c1 | > 10 µM (inactive)
OC[C@@H]1[C@H](c2ccc(C#CC3(O)CCCC3)cc2)[C@@H]2CN(Cc3cncnc3)CCCCN12 | > 10 µM (inactive)
COc1ccccc1CNC(=O)C[C@H]1CC[C@@H]2[C@H](COC[C@@H](O)CN2C(=O)Nc2ccccc2)O1 | > 10 µM (inactive)
COc1ccccc1C#Cc1ccc2c(c1)[C@@H]1[C@@H](CCN1C(C)=O)[C@@H](CO)N2C | > 10 µM (inactive)
COc1ccc2c3c(n(C)c2c1)[C@H](CO)N(C)CC31CCN(S(=O)(=O)c2cccc(F)c2)CC1 | > 10 µM (inactive)

SMILES | active concentration
CCC(=O)N1[C@@H](CO)[C@@H](c2ccccc2)C12CN(C(=O)c1ccc3c(c1)OCO3)C2 | > 10 µM (inactive)
N#C[C@H]1[C@@H](c2ccccc2C2=CCCCC2)[C@H](CO)N1C(=O)c1cccc(F)c1 | > 10 µM (inactive)
O=C(Cc1ccncc1)N1CC[C@@H]2[C@H](CO)Nc3ccc(-c4ccccc4F)cc3[C@@H]21 | > 10 µM (inactive)
C/C=C/c1ccc2c(c1)[C@@H]1[C@@H](CCN1C(=O)Cc1cccnc1)[C@@H](CO)N2C | > 10 µM (inactive)
O=C(C[C@@H]1CC[C@H]2[C@@H](COC[C@H](O)CN2C(=O)Nc2ccc(C(F)(F)F)cc2)O1)NCC1CC1 | > 10 µM (inactive)
CN1C(=O)c2cc(NC(=O)c3ccc(F)c(F)c3)ccc2OC[C@H]2O[C@@H](CC(=O)N[C@H]3CCN(Cc4ccccc4)C3)CC[C@@H]21 | > 10 µM (inactive)
CN(C)C(=O)c1cccc(-c2ccc([C@@H]3[C@@H](CO)N4C(=O)CN(C(=O)C5CCC5)C[C@@H]34)cc2)c1 | > 10 µM (inactive)
OC[C@@H]1[C@H](c2ccc(C3=CCCC3)cc2)[C@H]2CN(Cc3ccncc3)CCCCN12 | > 10 µM (inactive)
CCCNC(=O)[C@@H]1[C@@H](CO)[C@@H]2Cn3c(cccc3=O)[C@@H]2N1C | > 10 µM (inactive)
CC(C)NC(=O)Nc1ccc2c(c1)C(=O)N(C)[C@H]1CC[C@@H](CC(=O)NCc3ccc(F)cc3)O[C@H]1CO2 | > 10 µM (inactive)
CN1C(=O)c2cc(NC(=O)c3cnccn3)ccc2OC[C@H]2O[C@H](CC(=O)NCC3CCCCC3)CC[C@@H]21 | > 10 µM (inactive)
COc1ccc2c3c([nH]c2c1)[C@@H](CO)N(C(=O)Nc1ccc(F)cc1)CC31CN(S(=O)(=O)c2ccc(C)cc2)C1 | > 10 µM (inactive)
CC=Cc1ccc2n(c1=O)C[C@@H]1[C@@H](CO)[C@H](C(=O)N[C@@H](C)c3ccccc3)N(C(=O)c3cnccn3)[C@H]21 (mixture of isomers) | > 10 µM (inactive)
O=C(c1ccccn1)N1CC[C@@H]2[C@H](CO)Nc3ccc(Br)cc3[C@@H]21 | > 10 µM (inactive)
Cc1ccccc1-c1ccc([C@@H]2[C@@H](CO)N3C(=O)CN(S(C)(=O)=O)C[C@H]23)cc1 | > 10 µM (inactive)
COCC(=O)N1[C@H](CO)[C@@H](c2ccccc2-c2ccccc2F)[C@@H]1C#N | < 10 µM
COCCNC(=O)[C@H]1[C@H](CO)[C@H]2Cn3c(ccc(-c4cccc(F)c4)c3=O)[C@@H]1N2C(=O)NC(C)C | > 10 µM (inactive)
COc1cccc(S(=O)(=O)N2CCCCN3[C@H](C2)[C@H](c2ccc(C#CCC(C)C)cc2)[C@@H]3CO)c1 | > 10 µM (inactive)
O=C(Cc1ccccn1)N1[C@H](CO)[C@@H]2c3ccccc3NC[C@@H]21 | > 10 µM (inactive)
CN1CCN(C(=O)C[C@@H]2CC[C@@H]3[C@H](COC[C@H](O)CN3CC3CC3)O2)CC1 | > 10 µM (inactive)
CC1C=NC(S(=O)(=O)N2CC[C@H]3[C@@H](CO)N(C)c4ccc(-c5ccccc5F)cc4[C@H]32)=N1 (some centres undefined) | > 10 µM (inactive)
O=C(C[C@@H]1CC[C@@H]2[C@H](COC[C@H](O)CN2Cc2ccc3c(c2)OCO3)O1)Nc1ccccc1 | > 10 µM (inactive)
O=C(C1CCCCC1)N1CC(=O)N2[C@H](CO)[C@@H](c3ccc(-c4ccccc4F)cc3)[C@H]2C1 | > 10 µM (inactive)

SMILES | active concentration
CCCNC(=O)N1[C@H](CO)[C@@H]2c3ccccc3N(C(=O)C3CCC3)C[C@@H]21 | > 10 µM (inactive)
CN1C(=O)c2cc(NC(=O)c3ccc(F)c(F)c3)ccc2OC[C@@H]2O[C@@H](CC(=O)N[C@@H]3CCN(Cc4ccccc4)C3)CC[C@H]21 | > 10 µM (inactive)
COc1cccc(C#Cc2ccc([C@@H]3[C@@H](CO)N4C(=O)CN(C(=O)Cc5cccnc5)C[C@H]34)cc2)c1 | > 10 µM (inactive)
CN1C(=O)c2cc(NC(=O)c3cnccn3)ccc2OC[C@@H]2O[C@H](CC(=O)NCC3CCCCC3)CC[C@H]21 | > 10 µM (inactive)
COc1cccc(CN2CC3(C2)[C@H](c2ccccc2)[C@H](CO)N3C(=O)Cc2ccccc2)c1 | > 10 µM (inactive)
CC=Cc1ccc2n(c1=O)C[C@@H]1[C@@H](CO)[C@H](C(=O)NC3CCC3)[C@H]2N1S(=O)(=O)c1cn(C)cn1 (mixture of isomers) | > 10 µM (inactive)
O=C(CN1CCOCC1)N1CC(=O)N2[C@H](CO)[C@H](c3ccc(-c4cccc(F)c4)cc3)[C@@H]2C1 | > 10 µM (inactive)
O=C(C[C@H]1CC[C@@H]2[C@H](COC[C@@H](O)CN2Cc2ccccc2)O1)NCCc1ccccc1 | > 10 µM (inactive)
O=C([C@H]1[C@H](CO)[C@H]2Cn3c(cccc3=O)[C@H]2N1Cc1ccccc1Cl)N1CCCCC1 | > 10 µM (inactive)
O=C(NCC(F)(F)F)[C@H]1[C@H](CO)[C@H]2Cn3c(cccc3=O)[C@H]2N1Cc1cccc(F)c1 | > 10 µM (inactive)
O=S(=O)(c1ccc(F)cc1)N1CCCCN2[C@H](C1)[C@@H](c1ccc(-c3cncnc3)cc1)[C@@H]2CO | > 10 µM (inactive)
COc1cccc(C#Cc2ccc3c(c2)[C@@H]2[C@@H](CCN2C(=O)CC2CC2)[C@@H](CO)N3)c1 | > 10 µM (inactive)
CC=Cc1ccc2n(c1=O)C[C@H]1[C@H](CO)[C@@H](C(=O)Nc3ccccc3)N(CC3CCCC3)[C@@H]21 (mixture of isomers) | > 10 µM (inactive)
Cc1ccccc1S(=O)(=O)N1CC[C@@H]2[C@H]1c1cc(C#Cc3ccccc3)ccc1N[C@@H]2CO | > 10 µM (inactive)
C/C=C/c1ccc([C@H]2[C@@H](CO)N(C(=O)CN(C)C)C23CN(C(=O)C2CCC2)C3)cc1 | > 10 µM (inactive)
CN(C)C(=O)c1cccc(-c2ccc([C@H]3[C@H](CO)N4CCCCN(CC5CCOCC5)C[C@@H]34)cc2)c1 | > 10 µM (inactive)
Cn1cnc(CCNC(=O)C[C@@H]2CC[C@H]3[C@@H](COC[C@H](O)CN3C(=O)C3CC3)O2)c1 | > 10 µM (inactive)
O=C(C[C@@H]1CC[C@@H]2[C@H](COC[C@@H](O)CN2Cc2ccccc2)O1)NCCc1ccccc1 | > 10 µM (inactive)
CCCC#Cc1ccc([C@H]2[C@@H](CO)N3C(=O)CN(C(=O)CN4CCOCC4)C[C@@H]23)cc1 | > 10 µM (inactive)
C/C=C/c1ccccc1[C@@H]1[C@H](C#N)N(C(C)=O)[C@H]1CO | > 10 µM (inactive)
O=C(C[C@@H]1CC[C@H]2[C@@H](COC[C@@H](O)CN2Cc2cccc(C(F)(F)F)c2)O1)NCc1ccccc1 | > 10 µM (inactive)
CC(=O)N1[C@@H]2c3ccc(-c4cccc(F)c4)c(=O)n3C[C@@H]2[C@@H](CO)[C@@H]1C(=O)NCCCN(C)C | > 10 µM (inactive)
CN(C)CC(=O)N1CCCCN2[C@H](CO)[C@H](c3ccc(/C=C/c4ccccc4)cc3)[C@H]2C1 | < 10 µM
